Values belong to the compound of their own block, whether it stands above or below them.
What was measured:
[1] = Volatility of perfuming compounds (Tables 4 to 10), with top/middle/bottom note type; type: physicochemical
Protocol: In some aspects, the first perfume accord comprises perfuming compounds having a volatility ranging from 70,000 to 100 μg/l in air. In some aspects, perfuming compounds having a volatility ranging from 70,000 to 100 μg/l in air are referred to as “top notes”.
In some aspects, the second perfume accord comprises perfuming compounds having a volatility ranging from 99 to 50 μg/l in air. In some aspects, perfuming compounds having a volatility ranging from 99 to 50 μg/l in air are referred to as “middle notes”.
In some aspects, the third perfume accord comprises perfuming compounds having a volatility ranging from 49 to 0.1 μg/l in air. In some aspects, perfuming compounds having a volatility ranging from 49 to 0.1 μg/l in air are referred to as “bottom notes”.
Tables 4 to 10 describe top, middle and bottom note perfuming compounds for watery, green, fruity, citrus, sweet, gourmand and woody notes respectively.

[2] = Odor threshold and odor value of perfuming compounds (Tables 4 to 10)
[3] = Table 6, perfuming compounds having a fruity note
[4] = Table 6, perfuming compounds having a fruity note, note type by volatility
[5] = Table 7, citrus note, top, middle or bottom note
[6] = Table 7, citrus note, equals volatility divided by odor threshold
[7] = note type (Top/Middle/Bottom) by volatility, perfuming compounds having a green note
[8] = perfuming compounds having a green note
[9] = Table 4, watery note, top, middle or bottom note
[10] = Table 4, watery note, equals volatility divided by odor threshold
[11] = Table 10, perfuming compounds having a woody note, note type by volatility
[12] = Table 8, perfuming compounds having a sweet note

Volatility [1, 3]: 666.51 μg/l air | Volatility (μg/l air) ([1]; Table 7, citrus note): 666.51 μg/l air | Type [1, 5]: Top
SMILES: CCCCCCCCOC(C)=O [octyl acetate]
Type [1, 4]: TOP (perfuming compounds having a volatility ranging from 70,000 to 100 μg/l in air are referred to as “top notes”) | Odor Threshold (μg/l air) ([2]; Table 7, citrus note): 1.76E−01 μg/l air | Odor Value [2, 6]: 3.78E+03

Volatility [1, 3]: 6062.68 μg/l air | Type [1, 7]: Top | Volatility (μg/l air) [1, 8]: 6062.68 μg/l air
SMILES: CCC/C=C/COC(C)=O [(E)-2-HEXENYL ACETATE]
Type [1, 4]: TOP (perfuming compounds having a volatility ranging from 70,000 to 100 μg/l in air are referred to as “top notes”) | Odor Threshold (μg/l air) [2, 8]: 2.08E−01 μg/l air

Volatility (μg/l air) ([1]; Table 4, watery note): 4.86 μg/l air
SMILES: Cc1ccc2c(c1)CC(C)(CO)C2 (racemic)
Type [1, 9]: bottom (perfuming compounds having a volatility ranging from 49 to 0.1 μg/l in air are referred to as “bottom notes”) | Odor Threshold (μg/l air) ([2]; Table 4, watery note): 1.28E−04 μg/l air | Odor Value [2, 10]: 3.79E+04

Type [1, 4]: Middle | Type [1, 7]: Middle | Volatility (μg/l air) [1, 8]: 79.23 μg/l air
SMILES: CC(=O)OC/C=C(\C)CCC=C(C)C [(E)-3,7-DIMETHYL-2,6-OCTADIENYL ACETATE]
Odor Threshold [2, 3]: 3.57E−02 μg/l air | Odor Threshold (μg/l air) [2, 8]: 3.57E−02 μg/l air

SMILES: CC(=O)/C=C/C1C(C)=CCCC1(C)C (racemic)
Type [1, 7]: Middle | Volatility (μg/l air) [1, 8]: 68.11 μg/l air | Odor Threshold (μg/l air) [2, 8]: 5.30E−04 μg/l air

Type [1, 7]: Top | Volatility (μg/l air) [1, 8]: 1617.21 μg/l air
SMILES: COc1nccnc1CC(C)C [PYRAZOBUTYLE]
Odor Threshold (μg/l air) [2, 8]: 7.20E−07 μg/l air

Type [1, 11]: Bottom | Volatility ([1]; Table 10, woody note): 35.54 μg/l air
SMILES: COC(C)(C)CCCC(C)C(C)O (racemic)
Odor Threshold ([2]; Table 10, woody note): 2.66E−02 μg/l air

Volatility (μg/l air) ([1]; Table 7, citrus note): 76.57 μg/l air | Type [1, 5]: Middle
SMILES: CC(C)CCCC(C)CCO (racemic)
Odor Threshold (μg/l air) ([2]; Table 7, citrus note): 4.59E−02 μg/l air | Odor Value [2, 6]: 1.67E+03

Volatility (μg/l air) ([1]; Table 4, watery note): 26.54 μg/l air
SMILES: CC(C)=CCCC1=CCC(C)(C=O)CC1 (racemic)
Type [1, 9]: bottom (perfuming compounds having a volatility ranging from 49 to 0.1 μg/l in air are referred to as “bottom notes”) | Odor Threshold (μg/l air) ([2]; Table 4, watery note): 2.72E−02 μg/l air | Odor Value [2, 10]: 9.76E+02

SMILES: CCCCCC(=O)O [HEXANOIC ACID]
Volatility [1, 12]: 197.90 μg/l air | Type ([1]; Table 8, perfuming compounds having a sweet note, note type by volatility): Top | Volatility ([1]; Table 9, gourmand note): 197.90 μg/l air | Type ([1]; Table 9, perfuming compounds having a gourmand note, note type by volatility): Top | Type [1, 7]: Top | Volatility (μg/l air) [1, 8]: 197.90 μg/l air | Odor Threshold [2, 12]: 1.82E−02 μg/l air | Odor Value [2, 12]: 1.09E+04 | Odor Threshold ([2]; Table 9, gourmand note): 1.82E−02 μg/l air | Odor Threshold (μg/l air) [2, 8]: 1.82E−02 μg/l air

Volatility [1, 3]: 1506.33 μg/l air | Type [1, 7]: Top | Volatility (μg/l air) [1, 8]: 1506.33 μg/l air
SMILES: CC/C=C\CCOC(=O)OC [(3Z)-hex-3-en-1-yl methyl carbonate]
Type [1, 4]: TOP (perfuming compounds having a volatility ranging from 70,000 to 100 μg/l in air are referred to as “top notes”) | Odor Threshold (μg/l air) [2, 8]: 4.58E−02 μg/l air

Volatility (μg/l air) ([1]; Table 4, watery note): 4.85 μg/l air | Type [1, 7]: Bottom | Volatility (μg/l air) [1, 8]: 4.85 μg/l air
SMILES: CCCc1ccc2c(c1)OCC(=O)CO2 [7-PROPYL-2H,4H-1,5-BENZODIOXEPIN-3-ONE]
Type [1, 9]: bottom (perfuming compounds having a volatility ranging from 49 to 0.1 μg/l in air are referred to as “bottom notes”) | Odor Threshold (μg/l air) ([2]; Table 4, watery note): 6.43E−05 μg/l air | Odor Value [2, 10]: 7.54E+04 | Odor Threshold (μg/l air) [2, 8]: 6.43E−05 μg/l air

Type [1, 11]: Top | Volatility ([1]; Table 10, woody note): 1311.32 μg/l air
SMILES: COC(OC)C(C)(C)CC=C(C)C
Odor Threshold ([2]; Table 10, woody note): 1.26E−02 μg/l air

Type [1, 11]: Bottom | Volatility ([1]; Table 10, woody note): 29.81 μg/l air
SMILES: CC1C(C)(C)C2=C(C(=O)CCC2)C1(C)C (centres unmarked)
Odor Threshold ([2]; Table 10, woody note): 4.57E−03 μg/l air

Volatility [1, 3]: 27705.98 μg/l air | Type [1, 7]: Top | Volatility (μg/l air) [1, 8]: 27705.98 μg/l air
SMILES: CC(=O)OCC=C(C)C [3-methyl-2-buten-1-yl acetate]
Type [1, 4]: TOP (perfuming compounds having a volatility ranging from 70,000 to 100 μg/l in air are referred to as “top notes”) | Odor Threshold (μg/l air) [2, 8]: 5.58E−02 μg/l air

Volatility [1, 3]: 36.76 μg/l air | Type [1, 4]: Bottom | Type [1, 7]: Bottom | Volatility (μg/l air) [1, 8]: 36.76 μg/l air
SMILES: CCCCC/C=C\C=C\C(=O)OCC [ethyl (2E,4Z)-2,4-decadienoate]
Odor Threshold [2, 3]: 3.07E−04 μg/l air | Odor Value [2, 3]: 1.20E+05 | Odor Threshold (μg/l air) [2, 8]: 3.07E−04 μg/l air

Type [1, 11]: Top | Volatility ([1]; Table 10, woody note): 735.37 μg/l air
SMILES: CC(=O)O[C@@H]1CC2CC[C@]1(C)C2(C)C
Odor Threshold ([2]; Table 10, woody note): 4.46E−02 μg/l air

Type [1, 11]: Bottom | Volatility ([1]; Table 10, woody note): 3.69 μg/l air
SMILES: CCC(=CCC1CC=C(C)C1(C)C)CO (racemic)
Odor Threshold ([2]; Table 10, woody note): 7.80E−05 μg/l air

Type [1, 7]: Top | Volatility (μg/l air) [1, 8]: 993.39 μg/l air
SMILES: COC(C)(C)[C@H]1CC=C(C)CC1
Odor Threshold (μg/l air) [2, 8]: 1.99E−01 μg/l air
